Laboratory results taken from PubChem BioAssay AID651675 (Sanford-Burnham Center for Chemical Genomics, 2012).
Activity calls are given as the source filed them.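 Rule for the calls: active = compounds raising alpha-dystroglycan glycosylation signal with mean half-maximal concentration of 20 µM or lower; inactive = the rest.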

These molecules were tested on Pro5-aDG cells, alpha-DG glycosylation, IIH6 AlphaLISA (assay: enhancers of alpha-dystroglycan glycosylation, analogs – Pro5-aDG cells, AlphaLISA, SAR follow-up (AID 651675)).

SMILES | EC50
CNc1nc(-c2c[nH]c3ccccc23)cs1 | 10.3 µM
C=CCn1c(=N)n(CC(=O)c2ccc(Cl)c(Cl)c2)c2ccccc21 | 33.3 µM (inactive)
CCn1c(=N)n(CC(=O)c2ccc(Cl)cc2)c2ccccc21 | 26.6 µM (inactive)
Cn1c(=N)n(CC(=O)c2ccc(Cl)cc2)c2ccccc21 | 30.9 µM (inactive)
Cn1c(=N)n(CC(=O)c2ccc(F)cc2)c2ccccc21 | 34.5 µM (inactive)
N=c1n(CC(=O)c2ccc(Cl)c(Cl)c2)c2ccccc2n1Cc1ccccc1 | 15.5 µM
N=c1n(CCN2CCCC2)c2ccccc2n1CC(=O)c1ccc(Cl)c(Cl)c1 | 24.2 µM (inactive)
CCc1cccc2c(-c3csc(NC)n3)c[nH]c12 | 3.99 µM
Cn1c(=N)n(CC(=O)c2ccc(Cl)c(Cl)c2)c2ccccc21 | 26 µM (inactive)
C=CCNc1nc(-c2c[nH]c3ccccc23)cs1 | 5.69 µM
CCC(C)Nc1nc(-c2c[nH]c3ccccc23)cs1 (centres undefined) | 7.05 µM
CCn1c(=N)n(CC(=O)c2ccc(Cl)c(Cl)c2)c2ccccc21 | 25.2 µM (inactive)
c1ccc(CCNc2nc(-c3c[nH]c4ccccc34)cs2)cc1 | 5.13 µM
CC(Cc1ccccc1)Nc1nc(-c2c[nH]c3ccccc23)cs1 (centres undefined) | 8.68 µM
